This is an account of results in patent US20250367166A1, “NEXT GENERATION DIPROVOCIMS THAT ACTIVATE THE INNATE AND ADAPTIVE IMMUNE RESPONSE” (The Scripps Research Institute, priority 2022, published 2025).

Assay [1] concerns the target TLR1/TLR2 (Homo sapiens, UniProt O60603+Q15399). Description: TNF-α release from PMA-differentiated human THP-1 cells (ELISA).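 As to all read-outs here: cells exposed to graded compound concentrations for 4 h, TNF-α quantified in supernatant, LPS as positive and DMSO as negative control, values are duplicate means.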 As to conditions: for Emax: THP-1, 4 h, read-out: Efficacy (magnitude) of response versus diprovocim-1 (100%), THP-1; for EC50: read-out: EC50 (nM) (THP-1): EC50 TNF-α release from human THP-1 cells, Table 5.
Protocol: THP-1 (American Type Culture Collection) cells, a human monocytic leukemia cell line, were differentiated by treatment with 100 nM PMA (Sigma) in Roswell Park Memorial Institute (RPMI) cell culture medium [RPMI containing 10% vol/vol FBS (Gemini Bio Products), 1% penicillin and streptomycin (Life Technologies)] for 24 h. After that, the cells were washed with PBS and cultured in fresh RPMI cell culture medium for 24 h before use in studies. PMA-differentiated THP-1 cells were seeded onto 96-well plates at 0.5×10^5 cells per well and treated with systematically varied concentrations of the candidate compounds (dissolved in DMSO, and the final assay DMSO concentration (0.1%) was kept constant in all experiments) for 4 h. Ultra-pure LPS (dissolved in H2O, Enzo Life Sciences) was assessed alongside the compounds as a positive control and DMSO treated control was used as a negative control. Human TNF-α in the supernatants was measured by ELISA (eBioscience). This assay was used for establishing dose-response curves and measured EC50's. EC50's were calculated by Graphpad Prism. All data is the mean of duplicates and SD is within +10% of mean.
Assay [2] has as its target TLR1/TLR2 (Mus musculus, UniProt Q9EPQ1+Q9QUN7). Description: TNF-α release from thioglycolate-elicited mouse peritoneal macrophages (ELISA). The following applies: for Emax: 4 h, read-out: Efficacy (magnitude) of response versus diprovocim-1 (100%), mouse macrophages; for EC50: read-out: EC50 (nM) (mouse): EC50 TNF-α release from mouse macrophages, Table 5.

SMILES strings stand for the structures.

Chain of TLR1/TLR2 (Mus musculus, UniProt Q9EPQ1+Q9QUN7) (Q9EPQ1 26-795): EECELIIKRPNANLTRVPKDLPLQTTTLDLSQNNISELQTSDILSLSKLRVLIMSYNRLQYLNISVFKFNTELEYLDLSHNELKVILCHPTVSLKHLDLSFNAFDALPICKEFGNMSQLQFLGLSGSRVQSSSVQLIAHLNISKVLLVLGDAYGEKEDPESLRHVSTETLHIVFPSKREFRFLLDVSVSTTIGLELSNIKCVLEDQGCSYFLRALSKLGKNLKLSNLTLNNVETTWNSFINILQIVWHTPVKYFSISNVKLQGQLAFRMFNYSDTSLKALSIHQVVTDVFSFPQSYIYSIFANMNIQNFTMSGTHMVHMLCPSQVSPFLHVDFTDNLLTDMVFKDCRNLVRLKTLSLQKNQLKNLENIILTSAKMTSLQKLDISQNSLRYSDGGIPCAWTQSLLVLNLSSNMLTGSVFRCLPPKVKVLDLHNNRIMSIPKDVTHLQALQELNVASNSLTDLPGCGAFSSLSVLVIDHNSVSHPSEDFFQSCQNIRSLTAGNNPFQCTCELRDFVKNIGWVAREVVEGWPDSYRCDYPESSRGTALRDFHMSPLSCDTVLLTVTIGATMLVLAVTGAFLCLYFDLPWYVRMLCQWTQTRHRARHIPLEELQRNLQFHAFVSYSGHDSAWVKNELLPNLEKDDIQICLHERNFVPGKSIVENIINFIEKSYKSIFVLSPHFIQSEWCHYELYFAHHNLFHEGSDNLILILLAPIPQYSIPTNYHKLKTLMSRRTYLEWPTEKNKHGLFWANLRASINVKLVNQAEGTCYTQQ
Chain of TLR1/TLR2 (Mus musculus, UniProt Q9EPQ1+Q9QUN7) (Q9QUN7 25-784): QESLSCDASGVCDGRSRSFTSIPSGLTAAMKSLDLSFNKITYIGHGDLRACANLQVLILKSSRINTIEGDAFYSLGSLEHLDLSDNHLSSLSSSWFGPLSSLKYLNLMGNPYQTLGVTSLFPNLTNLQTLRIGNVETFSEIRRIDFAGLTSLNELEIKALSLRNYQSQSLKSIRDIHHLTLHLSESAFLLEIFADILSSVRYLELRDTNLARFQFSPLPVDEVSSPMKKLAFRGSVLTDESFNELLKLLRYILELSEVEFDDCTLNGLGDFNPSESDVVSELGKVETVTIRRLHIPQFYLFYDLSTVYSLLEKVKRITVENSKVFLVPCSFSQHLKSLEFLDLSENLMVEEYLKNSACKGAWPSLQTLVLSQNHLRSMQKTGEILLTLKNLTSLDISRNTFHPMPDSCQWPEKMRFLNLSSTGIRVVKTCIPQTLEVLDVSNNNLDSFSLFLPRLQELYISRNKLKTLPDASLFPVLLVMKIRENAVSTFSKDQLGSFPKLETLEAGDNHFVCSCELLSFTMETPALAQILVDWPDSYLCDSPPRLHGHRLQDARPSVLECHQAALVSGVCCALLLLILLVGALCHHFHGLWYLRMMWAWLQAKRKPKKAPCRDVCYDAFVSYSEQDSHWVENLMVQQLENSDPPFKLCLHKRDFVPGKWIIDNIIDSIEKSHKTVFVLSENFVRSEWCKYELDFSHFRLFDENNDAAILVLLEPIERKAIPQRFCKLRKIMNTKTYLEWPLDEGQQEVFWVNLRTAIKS
Chain of TLR1/TLR2 (Homo sapiens, UniProt O60603+Q15399) (Q15399 25-786): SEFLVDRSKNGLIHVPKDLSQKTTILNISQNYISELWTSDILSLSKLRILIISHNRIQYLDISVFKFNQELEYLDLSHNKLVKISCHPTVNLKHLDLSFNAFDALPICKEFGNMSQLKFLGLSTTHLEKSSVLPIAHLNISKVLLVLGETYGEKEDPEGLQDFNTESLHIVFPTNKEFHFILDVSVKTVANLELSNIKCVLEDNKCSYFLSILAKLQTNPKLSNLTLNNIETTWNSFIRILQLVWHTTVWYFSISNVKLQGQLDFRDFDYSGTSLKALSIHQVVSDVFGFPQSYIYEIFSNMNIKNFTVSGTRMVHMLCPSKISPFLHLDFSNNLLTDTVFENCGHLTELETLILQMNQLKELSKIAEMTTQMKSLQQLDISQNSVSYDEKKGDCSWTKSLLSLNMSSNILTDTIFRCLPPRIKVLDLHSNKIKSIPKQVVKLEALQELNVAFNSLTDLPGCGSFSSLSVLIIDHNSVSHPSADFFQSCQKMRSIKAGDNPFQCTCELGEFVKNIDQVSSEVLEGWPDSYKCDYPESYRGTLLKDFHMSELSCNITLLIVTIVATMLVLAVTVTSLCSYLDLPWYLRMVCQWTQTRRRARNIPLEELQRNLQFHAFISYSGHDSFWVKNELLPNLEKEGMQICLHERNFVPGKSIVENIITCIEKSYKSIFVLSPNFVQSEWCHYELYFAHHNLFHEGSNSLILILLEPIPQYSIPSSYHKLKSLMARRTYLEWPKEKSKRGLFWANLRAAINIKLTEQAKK
Chain of TLR1/TLR2 (Homo sapiens, UniProt O60603+Q15399) (O60603 21-784): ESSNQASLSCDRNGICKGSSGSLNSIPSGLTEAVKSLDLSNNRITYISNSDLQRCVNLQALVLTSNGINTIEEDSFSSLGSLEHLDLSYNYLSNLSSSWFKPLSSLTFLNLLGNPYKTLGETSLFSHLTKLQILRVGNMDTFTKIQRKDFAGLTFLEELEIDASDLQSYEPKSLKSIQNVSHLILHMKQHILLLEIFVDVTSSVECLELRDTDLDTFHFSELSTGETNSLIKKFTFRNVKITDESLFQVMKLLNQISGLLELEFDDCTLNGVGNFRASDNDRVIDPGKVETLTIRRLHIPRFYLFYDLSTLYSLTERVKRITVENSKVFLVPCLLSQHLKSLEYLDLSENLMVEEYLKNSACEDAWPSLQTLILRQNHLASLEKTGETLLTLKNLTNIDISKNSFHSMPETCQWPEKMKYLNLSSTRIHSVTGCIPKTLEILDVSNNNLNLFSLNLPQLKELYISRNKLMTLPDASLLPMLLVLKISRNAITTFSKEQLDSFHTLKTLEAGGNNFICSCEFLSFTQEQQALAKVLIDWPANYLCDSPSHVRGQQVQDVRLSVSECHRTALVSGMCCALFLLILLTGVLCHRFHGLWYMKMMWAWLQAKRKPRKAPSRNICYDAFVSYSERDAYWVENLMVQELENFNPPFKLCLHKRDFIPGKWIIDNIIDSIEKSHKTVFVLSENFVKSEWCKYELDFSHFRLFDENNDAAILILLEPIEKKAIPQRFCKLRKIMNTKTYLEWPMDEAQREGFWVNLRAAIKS

Take `CC(C)[C@H](NC(=O)OC(C)(C)C)C(=O)OCCCCCCCCCCCCNC(=O)[C@@H]1CN(C(=O)c2ccc(C(=O)N3C[C@@H](C(=O)N[C@H]4C[C@@H]4c4ccccc4)[C@H](C(=O)N[C@H]4C[C@@H]4c4ccccc4)C3)cc2)C[C@H]1C(=O)N[C@H]1C[C@@H]1c1ccccc1` [Compound 59, (S)-12-((3S,4S)-1-(4-((3S,4S)-3,4-Bis(((1S,2R)-2-phenylcyclopropyl)carbamoyl)pyrrolidine-1-carbonyl)-benzoyl)-4-(((1S,2R)-2-phenylcyclopropyl)carbamoyl)-pyrrolidine-3-carboxamido)-dodecyl 2-((tert-butoxycarbonyl)amino)-3-methylbutanoate]: in assay [1], the Emax came to 100% and the concentration giving a half-maximal response (EC50) came out at 1.8 nM. In assay [2], the Emax amounted to 180% and the half-maximal effective concentration (EC50) is 19 nM.

Consider `CC(C)(C)OC(=O)N1CCC[C@H]1C(=O)OCCCCCCCCCCCCNC(=O)[C@@H]1CN(C(=O)c2ccc(C(=O)N3C[C@@H](C(=O)N[C@H]4C[C@@H]4c4ccccc4)[C@H](C(=O)N[C@H]4C[C@@H]4c4ccccc4)C3)cc2)C[C@H]1C(=O)N[C@H]1C[C@@H]1c1ccccc1` [Compound 60, (S)-2-(12-((3S,4S)-1-(4-((3S,4S)-3,4-Bis(((1S,2R)-2-phenylcyclopropyl)carbamoyl)pyrrolidine-1-carbonyl)-benzoyl)-4-(((1S,2R)-2-phenylcyclopropyl)carbamoyl)-pyrrolidine-3-carboxamido)-dodecyl) 1-tert-butyl pyrrolidine-1,2-dicarboxylate], for which, in assay [1], the Emax came to 90% and the concentration giving a half-maximal response (EC50) came out at 0.94 nM. Further, in assay [2], the Emax came to 100% and the half-maximal effective concentration (EC50) worked out at 9.2 nM.

Regarding `CC[C@H](C)[C@H](NC(=O)OC(C)(C)C)C(=O)OCCCCCCCCCCCCNC(=O)[C@@H]1CN(C(=O)c2ccc(C(=O)N3C[C@@H](C(=O)N[C@H]4C[C@@H]4c4ccccc4)[C@H](C(=O)N[C@H]4C[C@@H]4c4ccccc4)C3)cc2)C[C@H]1C(=O)N[C@H]1C[C@@H]1c1ccccc1` [Compound 61, (2S,3S)-12-((3S,4S)-1-(4-((3S,4S)-3,4-Bis(((1S,2R)-2-phenylcyclopropyl)carbamoyl)pyrrolidine-1-carbonyl)-benzoyl)-4-(((1S,2R)-2-phenylcyclopropyl)carbamoyl)-pyrrolidine-3-carboxamido)-dodecyl 2-((tert-butoxy-carbonyl)amino)-3-methylpentanoate], in assay [1], the Emax turned out to be 100% and the concentration for a half-maximal effect (EC50) is 9 nM. In assay [2], the Emax was 140% and the EC50 was found to be 50 nM.

As for `CC(C)(C)OC(=O)NC1(C(=O)OCCCCCCCCCCCCNC(=O)[C@@H]2CN(C(=O)c3ccc(C(=O)N4C[C@@H](C(=O)N[C@H]5C[C@@H]5c5ccccc5)[C@H](C(=O)N[C@H]5C[C@@H]5c5ccccc5)C4)cc3)C[C@H]2C(=O)N[C@H]2C[C@@H]2c2ccccc2)CC1` [Compound 62, 12-((3S,4S)-1-(4-((3S,4S)-3,4-Bis(((1S,2R)-2-phenylcyclopropyl)carbamoyl)pyrrolidine-1-carbonyl)-benzoyl)-4-(((1S,2R)-2-phenylcyclopropyl)carbamoyl)-pyrrolidine-3-carboxamido)-dodecyl 1-((tert-butoxy-carbonyl)amino)cyclopropanecarboxylate], in assay [1], the Emax worked out at 100% and the EC50 came to 5 nM. Also, in assay [2], the Emax is 220% and the EC50 was determined as 10 nM.

On to `CC(C)(C)OC(=O)N[C@@H](Cc1ccccc1)C(=O)OCCCCCCCCCCCCNC(=O)[C@@H]1CN(C(=O)c2ccc(C(=O)N3C[C@@H](C(=O)N[C@H]4C[C@@H]4c4ccccc4)[C@H](C(=O)N[C@H]4C[C@@H]4c4ccccc4)C3)cc2)C[C@H]1C(=O)N[C@H]1C[C@@H]1c1ccccc1` [Compound 63, (S)-12-((3S,4S)-1-(4-((3S,4S)-3,4-Bis(((1S,2R)-2-phenylcyclopropyl)carbamoyl)pyrrolidine-1-carbonyl)-benzoyl)-4-(((1S,2R)-2-phenylcyclopropyl)carbamoyl)-pyrrolidine-3-carboxamido)-dodecyl 2-((tert-butoxy-carbonyl)amino)-3-phenylpropanoate], for which, in assay [1], the Emax was found to be 100% and the EC50 is 40 nM. Besides, in assay [2], the Emax came out at 220% and the concentration giving a half-maximal response (EC50) is 40 nM.

On to `CC(C)(C)OC(=O)N[C@@H](COCc1ccccc1)C(=O)OCCCCCCCCCCCCNC(=O)[C@@H]1CN(C(=O)c2ccc(C(=O)N3C[C@@H](C(=O)N[C@H]4C[C@@H]4c4ccccc4)[C@H](C(=O)N[C@H]4C[C@@H]4c4ccccc4)C3)cc2)C[C@H]1C(=O)N[C@H]1C[C@@H]1c1ccccc1` [Compound 64, (S)-12-((3S,4S)-1-(4-((3S,4S)-3,4-Bis(((1S,2R)-2-phenylcyclopropyl)carbamoyl)pyrrolidine-1-carbonyl)-benzoyl)-4-(((1S,2R)-2-phenylcyclopropyl)carbamoyl)-pyrrolidine-3-carboxamido)dodecyl 3-(benzyloxy)-2-((tert-butoxycarbonyl)amino)propanoate], for which the results for the Emax in assay [1] and in assay [2] were 100% and 370%, respectively. Also, the EC50 in assay [1] came to 0.15 nM; in assay [2], 30 nM.

In the case of `CC(C)(C)OC(=O)N[C@@H](CSCc1ccccc1)C(=O)OCCCCCCCCCCCCNC(=O)[C@@H]1CN(C(=O)c2ccc(C(=O)N3C[C@@H](C(=O)N[C@H]4C[C@@H]4c4ccccc4)[C@H](C(=O)N[C@H]4C[C@@H]4c4ccccc4)C3)cc2)C[C@H]1C(=O)N[C@H]1C[C@@H]1c1ccccc1` [Compound 65, (R)-12-((3S,4S)-1-(4-((3S,4S)-3,4-Bis(((1S,2R)-2-phenylcyclopropyl)carbamoyl)pyrrolidine-1-carbonyl)-benzoyl)-4-(((1S,2R)-2-phenylcyclopropyl)carbamoyl)-pyrrolidine-3-carboxamido)dodecyl 3-(benzylthio)-2-((tert-butoxycarbonyl)amino)propanoate], in assay [1], the Emax is 100% and the 50% effective concentration (EC50) was determined as 18 nM. Further, in assay [2], the Emax was 200% and the 50% effective concentration (EC50) is 360 nM.

As to `CC(C)(C)OC(=O)N[C@@H](CCC(=O)OCc1ccccc1)C(=O)OCCCCCCCCCCCCNC(=O)[C@@H]1CN(C(=O)c2ccc(C(=O)N3C[C@@H](C(=O)N[C@H]4C[C@@H]4c4ccccc4)[C@H](C(=O)N[C@H]4C[C@@H]4c4ccccc4)C3)cc2)C[C@H]1C(=O)N[C@H]1C[C@@H]1c1ccccc1` [Compound 66, (S)-5-Benzyl 1-(12-((3S,4S)-1-(4-((3S,4S)-3,4-bis-(((1S,2R)-2-phenylcyclopropyl)carbamoyl)-pyrrolidine-1-carbonyl)-benzoyl)-4-(((1S,2R)-2-phenylcyclopropyl)-carbamoyl)pyrrolidine-3-carboxamido)dodecyl) 2-((tert-butoxycarbonyl)-amino)pentanedioate], the Emax in assay [1] amounted to 100%; in assay [2], 210%. In addition, the EC50 in assay [1] amounted to 39 nM; in assay [2], 450 nM.

Consider `CSCC[C@H](NC(=O)OC(C)(C)C)C(=O)OCCCCCCCCCCCCNC(=O)[C@@H]1CN(C(=O)c2ccc(C(=O)N3C[C@@H](C(=O)N[C@H]4C[C@@H]4c4ccccc4)[C@H](C(=O)N[C@H]4C[C@@H]4c4ccccc4)C3)cc2)C[C@H]1C(=O)N[C@H]1C[C@@H]1c1ccccc1` [Compound 67, (S)-12-((3S,4S)-1-(4-((3S,4S)-3,4-Bis(((1S,2R)-2-phenylcyclopropyl)carbamoyl)pyrrolidine-1-carbonyl)-benzoyl)-4-(((1S,2R)-2-phenylcyclopropyl)carbamoyl)-pyrrolidine-3-carboxamido)-dodecyl 2-((tert-butoxy-carbonyl)amino)-4-(methylthio)butanoate], for which, in assay [1], the Emax came out at 100% and the EC50 stood at 2.8 nM. In addition, in assay [2], the Emax came out at 150% and the half-maximal effective concentration (EC50) is 44 nM.

`Cc1ccc(S(=O)(=O)n2cnc(C[C@H](NC(=O)OC(C)(C)C)C(=O)OCCCCCCCCCCCCNC(=O)[C@@H]3CN(C(=O)c4ccc(C(=O)N5C[C@@H](C(=O)N[C@H]6C[C@@H]6c6ccccc6)[C@H](C(=O)N[C@H]6C[C@@H]6c6ccccc6)C5)cc4)C[C@H]3C(=O)N[C@H]3C[C@@H]3c3ccccc3)c2)cc1` [Compound 68, (S)-12-((3S,4S)-1-(4-((3S,4S)-3,4-Bis(((1S,2R)-2-phenylcyclopropyl)carbamoyl)pyrrolidine-1-carbonyl)benzoyl)-4-(((1S,2R)-2-phenylcyclopropyl)carbamoyl)pyrrolidine-3-carboxamido)-dodecyl 2-((tert-butoxy-carbonyl)amino)-3-(1-tosyl-1H-imidazol-4-yl)propanoate]: in assay [1], the Emax came to 90% and the EC50 worked out at 17 nM. Besides, in assay [2], the Emax amounted to 110% and the 50% effective concentration (EC50) came out at 35 nM.

For the compound `CC(C)(C)OC(=O)N[C@@H](CCCCNC(=O)OCC1c2ccccc2-c2ccccc21)C(=O)OCCCCCCCCCCCCNC(=O)[C@@H]1CN(C(=O)c2ccc(C(=O)N3C[C@@H](C(=O)N[C@H]4C[C@@H]4c4ccccc4)[C@H](C(=O)N[C@H]4C[C@@H]4c4ccccc4)C3)cc2)C[C@H]1C(=O)N[C@H]1C[C@@H]1c1ccccc1` [Compound 69, (S)-12-((3S,4S)-1-(4-((3S,4S)-3,4-Bis(((1S,2R)-2-phenylcyclopropyl)carbamoyl)pyrrolidine-1-carbonyl)-benzoyl)-4-(((1S,2R)-2-phenylcyclopropyl)carbamoyl)-pyrrolidine-3-carboxamido)-dodecyl 6-((((9H-fluoren-9-yl)methoxy)-carbonyl)amino)-2-((tert-butoxy-carbonyl)amino)-hexanoate], in assay [1], the Emax was 100% and the half-maximal effective concentration (EC50) came out at 280 nM. For the same compound, in assay [2], the Emax worked out at 200% and the EC50 amounted to 1150 nM.
